This passage reports IC50 results from patent US12662491B2 (Redona Therapeutics, Inc., priority 2020, dated 2026).

One may read the IC50 as the concentration needed to halve the response being measured.

In the test the target is T1, Zcchc11 enzyme (Homo sapiens, UniProt Q5TAX3).
T1 construct: made in house; host or cells: HEK293 cells (Zcchc11); E. coli Rosetta II (LIN28A)
T1 sequence (Q5TAX3 212-1420): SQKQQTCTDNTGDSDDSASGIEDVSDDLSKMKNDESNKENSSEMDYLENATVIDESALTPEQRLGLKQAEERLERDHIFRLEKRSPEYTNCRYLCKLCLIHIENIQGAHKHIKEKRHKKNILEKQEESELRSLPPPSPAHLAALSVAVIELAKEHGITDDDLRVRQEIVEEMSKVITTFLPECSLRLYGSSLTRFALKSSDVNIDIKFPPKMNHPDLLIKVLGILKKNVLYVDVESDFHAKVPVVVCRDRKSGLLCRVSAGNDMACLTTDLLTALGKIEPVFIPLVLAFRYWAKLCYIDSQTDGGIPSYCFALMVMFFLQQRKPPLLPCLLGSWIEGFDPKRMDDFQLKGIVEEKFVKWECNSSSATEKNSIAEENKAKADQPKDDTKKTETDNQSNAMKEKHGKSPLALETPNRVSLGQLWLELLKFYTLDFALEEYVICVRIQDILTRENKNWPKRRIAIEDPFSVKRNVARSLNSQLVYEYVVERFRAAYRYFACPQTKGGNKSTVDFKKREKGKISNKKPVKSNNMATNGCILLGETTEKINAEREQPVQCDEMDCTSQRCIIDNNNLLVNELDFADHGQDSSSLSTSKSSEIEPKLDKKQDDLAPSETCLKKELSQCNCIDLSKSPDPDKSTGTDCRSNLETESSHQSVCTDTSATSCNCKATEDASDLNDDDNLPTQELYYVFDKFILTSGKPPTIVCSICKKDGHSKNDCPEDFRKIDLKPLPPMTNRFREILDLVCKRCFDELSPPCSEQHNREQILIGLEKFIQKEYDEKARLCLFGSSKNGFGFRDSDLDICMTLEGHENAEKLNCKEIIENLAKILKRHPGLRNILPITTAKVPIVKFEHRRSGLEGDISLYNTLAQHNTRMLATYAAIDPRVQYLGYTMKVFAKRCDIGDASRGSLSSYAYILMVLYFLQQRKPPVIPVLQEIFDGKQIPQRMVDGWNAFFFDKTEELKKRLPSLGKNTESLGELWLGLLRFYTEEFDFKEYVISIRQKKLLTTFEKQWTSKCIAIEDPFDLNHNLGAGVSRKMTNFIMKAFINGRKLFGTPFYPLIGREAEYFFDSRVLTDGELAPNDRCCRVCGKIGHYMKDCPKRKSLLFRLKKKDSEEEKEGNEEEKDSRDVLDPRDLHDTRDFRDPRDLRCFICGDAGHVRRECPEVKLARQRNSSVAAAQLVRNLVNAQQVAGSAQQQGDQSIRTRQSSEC
The test is described as follows: TUTase assay (Zcchc11 assay, Lin28a-dependent polyuridylation of pre-let-7). The following applies: Lin28a-dependent Zcchc11 (Z11) TUTase assay; read-out: Potency Lin28a-dep Z11 IC50. Type of test: biochemical. The method, boiled down:
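LIN28A (10 nM) in pH 7.3 HEPES/KCl/MgCl2/DTT buffer was mixed with serially diluted compound, then 0.2 nM truncated human Zcchc11 and 2 nM labeled pre-let-7 were added for 30 min at room temperature. UTP (5 uM) and quench probe (4 nM) then started the reaction. Linear early rates gave IC50 values.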
With `COCCN(C)C1CN(c2ccc(-n3cc(C(=O)O)c(=O)c4cc(Cl)c(N5CCC[C@@H]5COc5nc(N(C)C)ccc5Cl)cc43)cn2)C1` [Example 657, (R)-6-chloro-7-(2-(((3-chloro-6-(dimethylamino)pyridin-2-yl)oxy)methyl)pyrrolidin-1-yl)-1-(6-(3-((2-methoxyethyl) (methyl)amino)azetidin-1-yl)pyridin-3-yl)-4-oxo-1,4-dihydroquinoline-3-carboxylic acid], the IC50 was at most 1000 nM.
Under `CN(C)C1CN(c2ccc(-n3cc(C(=O)O)c(=O)c4cc(Cl)c(N5CCC[C@@H]5COc5nc(OC(C)(C)C)ccc5Cl)cc43)cn2)C1` [Example 658, (R)-7-(2-(((6-(tert-butoxy)-3-chloropyridin-2-yl)oxy)methyl)pyrrolidin-1-yl)-6-chloro-1-(6-(3-(dimethylamino)azetidin-1-yl)pyridin-3-yl)-4-oxo-1,4-dihydroquinoline-3-carboxylic acid] stands at most 1000 nM; under `COc1ccc(Cl)c(OC[C@H]2CCCN2c2cc3c(cc2C(F)(F)F)c(=O)c(C(=O)O)cn3-c2ccc(N3CC(N(C)C)C3)nc2)n1` [Example 659, (R)-7-(2-(((3-chloro-6-methoxypyridin-2-yl)oxy)methyl)pyrrolidin-1-yl)-1-(6-(3-(dimethylamino)azetidin-1-yl)pyridin-3-yl)-4-oxo-6-(trifluoromethyl)-1,4-dihydroquinoline-3-carboxylic acid], at most 1000 nM; under `COc1ccc(Cl)c(OC[C@H]2C[C@H]3C[C@H]3N2c2cc3c(cc2Cl)c(=O)c(C(=O)O)cn3-c2ccc(N3CC(N(C)C)C3)nc2)n1` [Example 660, 6-chloro-7-((1R,3R,5R)-3-(((3-chloro-6-methoxypyridin-2-yl)oxy)methyl)-2-azabicyclo[3.1.0]hexan-2-yl)-1-(6-(3-(dimethylamino)azetidin-1-yl)pyridin-3-yl)-4-oxo-1,4-dihydroquinoline-3-carboxylic acid], at most 1000 nM.
As for `COc1ccc(Cl)c(OC[C@H]2C[C@@H]3C[C@@H]3N2c2cc3c(cc2Cl)c(=O)c(C(=O)O)cn3-c2ccc(N3CC(N(C)C)C3)nc2)n1` [Example 661, 6-chloro-7-((1S,3R,5S)-3-(((3-chloro-6-methoxypyridin-2-yl)oxy)methyl)-2-azabicyclo[3.1.0]hexan-2-yl)-1-(6-(3-(dimethylamino)azetidin-1-yl)pyridin-3-yl)-4-oxo-1,4-dihydroquinoline-3-carboxylic acid], the IC50 is at most 1000 nM.
Regarding `COc1cnc(OC[C@H]2C[C@H]3C[C@H]3N2c2cc3c(cc2Cl)c(=O)c(C(=O)O)cn3-c2ccc(N3CC(N(C)C)C3)nc2)c(Cl)c1` [Example 662, 6-chloro-7-((1R,3R,5R)-3-(((3-chloro-5-methoxypyridin-2-yl)oxy)methyl)-2-azabicyclo[3.1.0]hexan-2-yl)-1-(6-(3-(dimethylamino)azetidin-1-yl)pyridin-3-yl)-4-oxo-1,4-dihydroquinoline-3-carboxylic acid], the IC50 was at most 1000 nM.
With `COc1ccc(Cl)c(OC[C@H]2CC3(CC3)CN2c2cc3c(cc2Cl)c(=O)c(C(=O)O)cn3-c2ccc(N3CC(N(C)C)C3)nc2)n1` [Example 663, (R)-6-chloro-7-(6-(((3-chloro-6-methoxypyridin-2-yl)oxy)methyl)-5-azaspiro[2.4]heptan-5-yl)-1-(6-(3-(dimethylamino)azetidin-1-yl)pyridin-3-yl)-4-oxo-1,4-dihydroquinoline-3-carboxylic acid], the IC50 was at most 1000 nM.
Under `CN(C)C1CN(c2ccc(-n3cc(C(=O)O)c(=O)c4cc(Cl)c(N5CC[C@@H](F)[C@@H]5COc5ncccc5Cl)cc43)cn2)C1` [Example 664, 6-chloro-7-((2S,3R)-2-(((3-chloropyridin-2-yl)oxy)methyl)-3-fluoropyrrolidin-1-yl)-1-(6-(3-(dimethylamino)azetidin-1-yl)pyridin-3-yl)-4-oxo-1,4-dihydroquinoline-3-carboxylic acid] stands at most 1000 nM; under `CN(C)c1ccc(Cl)c(OC[C@H]2CC3CC3N2c2cc3c(cc2Cl)c(=O)c(C(=O)O)cn3-c2ccc(N3CC(N(C)C)C3)nc2)n1` (stereo partly drawn) [Example 665, 6-chloro-7-((3R)-3-(((3-chloro-6-(dimethylamino)pyridin-2-yl)oxy)methyl)-2-azabicyclo[3.1.0]hexan-2-yl)-1-(6-(3-(dimethylamino)azetidin-1-yl)pyridin-3-yl)-4-oxo-1,4-dihydroquinoline-3-carboxylic acid], at most 1000 nM; under `CN(C)C1CN(c2ccc(-n3cc(C(=O)O)c(=O)c4cc(Cl)c(N5CCC[C@H]5COc5ncccc5Cl)cc43)cn2)C1` [Example 666, (S)-6-chloro-7-(2-(((3-chloropyridin-2-yl)oxy)methyl)pyrrolidin-1-yl)-1-(6-(3-(dimethylamino)azetidin-1-yl)pyridin-3-yl)-4-oxo-1,4-dihydroquinoline-3-carboxylic acid], at most 1000 nM.
Under `CN(C)C1CN(c2ccc(-n3cc(C(=O)O)c(=O)c4cc(Cl)c(N5CC[C@H](O)[C@@H]5COc5ncccc5Cl)cc43)cn2)C1` [Example 667, 6-chloro-7-((2S,3S)-2-(((3-chloropyridin-2-yl)oxy)methyl)-3-hydroxypyrrolidin-1-yl)-1-(6-(3-(dimethylamino)azetidin-1-yl)pyridin-3-yl)-4-oxo-1,4-dihydroquinoline-3-carboxylic acid] stands at most 1000 nM.
`COc1ccnc(OC[C@@H]2CCCN2c2cc3c(cc2Cl)c(=O)c(C(=O)O)cn3-c2ccc(N3CC(N(C)C)C3)nc2)c1Cl` [Example 668, (S)-6-chloro-7-(2-(((3-chloro-4-methoxypyridin-2-yl)oxy)methyl)pyrrolidin-1-yl)-1-(6-(3-(dimethylamino)azetidin-1-yl)pyridin-3-yl)-4-oxo-1,4-dihydroquinoline-3-carboxylic acid]: the IC50 is at most 1000 nM.
As for `CO[C@H]1CCN(c2cc3c(cc2Cl)c(=O)c(C(=O)O)cn3-c2ccc(N3CC(N(C)C)C3)nc2)[C@H]1COc1ncccc1Cl` [Example 669, 6-chloro-7-((2S,3S)-2-(((3-chloropyridin-2-yl)oxy)methyl)-3-methoxypyrrolidin-1-yl)-1-(6-(3-(dimethylamino)azetidin-1-yl)pyridin-3-yl)-4-oxo-1,4-dihydroquinoline-3-carboxylic acid], the half-maximal inhibitory concentration (IC50) was at most 1000 nM.
For `CN(C)C1CN(c2ccc(-n3cc(C(=O)O)c(=O)c4cc(F)c(N5CCC[C@H]5COc5ncccc5Cl)cc43)cn2)C1` [Example 670, (S)-7-(2-(((3-chloropyridin-2-yl)oxy)methyl)pyrrolidin-1-yl)-1-(6-(3-(dimethylamino)azetidin-1-yl)pyridin-3-yl)-6-fluoro-4-oxo-1,4-dihydroquinoline-3-carboxylic acid], the IC50 is 1000 to 10000 nM.
Consider `CN(C)C1CN(c2ccc(-n3cc(C(=O)O)c(=O)c4cc(F)c(N5CC[C@@H](F)[C@@H]5COc5ncccc5Cl)cc43)cn2)C1` [Example 671, 7-((2S,3R)-2-(((3-chloropyridin-2-yl)oxy)methyl)-3-fluoropyrrolidin-1-yl)-1-(6-(3-(dimethylamino)azetidin-1-yl)pyridin-3-yl)-6-fluoro-4-oxo-1,4-dihydroquinoline-3-carboxylic acid], for which the half-maximal inhibitory concentration (IC50) was at most 1000 nM.
